From patent US10526660B2, “Methods for evaluating and treating Waldenstrom's macroglobulinemia” (Dana-Farber Cancer Institute, Inc., priority 2013, dated 2020)
Where two headings read alike, the source gives them in different places.

Columns and labels:
CXCR4^S338X MWCL-1 cells = test: PARP and caspase 3 cleavage by immunoblotting (apoptosis), MWCL-1; type: cell-based; conditions: for level of SDF-1a mediated rescue from PARP and caspase 3 cleavage: agents at EC50 dose ranges, 6 hours, SDF-1a 20 nM
BCWM.1 and MWCL-1 cells [1] = test: Annexin V staining (apoptosis), Example 5; type: cell-based; conditions: 18 hours
BCWM.1 WM cells [2] = test: Annexin V staining (apoptosis) of CXCR4 frameshift/nonsense mutant expressing BCWM.1 cells, Example 6; type: cell-based; conditions: CXCR4^T311fs and CXCR4^S344fs cells; for SDF-1a rescue of ibrutinib or idelalisib treated cells: MK-2206 0.5 uM, AS-703026 0.25 uM, 18 hours
Description: CXCR4^WT, CXCR4^FS, CXCR4^S338X cDNAs were subcloned into plenti-IRES-GFP vector, and transduced using a lentiviral based strategy into BCWM.1 WM cells as before (Cao et al, 2014; Yang et al, 2013). Frameshift mutations proximal and distal to CXCR4^S338X that were identified in WM patients by WGS were studied (FIG. 11). […] The nonsense mutation CXCR4^S338X resulted from C>G change at 136872485 (Hunter et al, 2013). Five days after transduction, GFP positive cells were sorted and used for functional studies. Surface CXCR4 expression was determined at baseline, and following stimulation for 30 minutes with SDF-1a (10-100 nM) as before (Cao et al, 2014). Phosphoflow experiments were performed using conjugated antibodies to phospho-ERK1/2 (T^202/Y^204) and phospho-AKT(S^473) (BD Phosflow) as previously described (Cao et al, 2014). […] Survival studies related to AKT and ERK were performed in the presence or absence AKT (MK-2206, 0.5 uM) or MEK (AS-703026, 0.25 uM) specific inhibitors (Selleck Chemicals, Houston Tex.) as previously reported (Cao et al, 2014).

CXCR4^S338X BCWM.1 cells = test: PARP and caspase 3 cleavage by immunoblotting (apoptosis), BCWM.1; type: cell-based; conditions: for level of SDF-1a mediated rescue from PARP and caspase 3 cleavage: agents at EC50 dose ranges, 6 hours, SDF-1a 20 nM
BCWM.1 WM cells [3] = conditions: CXCR4 S338X transduced cells; 30 nM AMD3100; p<0.005
Description: Five days after transduction, GFP positive cells were sorted and used for functional studies.

BCWM.1 and MWCL-1 cells [4] = conditions: CXCR4^S338X expressing cells; co-treatment ibrutinib and AMD3100 30 uM
Protocol: (§1) Five days after transduction, GFP positive cells were sorted and used for functional studies. Surface expression of CXCR4 was determined by flow cytometric analysis using a PE-conjugated anti-CXCR4 monoclonal antibody (BD Biosciences, San Jose Calif.). Transduced cell lines were stimulated with or without SDF-1a (10-100 nM), and cell surface expression of CXCR4 determined on CXCR4^WT and S338X transduced cells. CXCR4 expression levels were calculated as: [(receptor geometric mean fluorescence intensity [MFI] of treated cells-MFI of isotype IgG control)/(receptor geometric MFI of unstimulated cells-MFI of isotype IgG control)]×100.

WHIM patients = WHIM patients treated daily for 6 months; cited from earlier work
[5] = test system: phospho-AKT, phospho-ERK and phospho-BTK; test: SDF-1a triggered AKT, ERK and BTK signaling (phosphoflow, immunoblotting) in transduced BCWM.1 cells; type: cell-based
CXCR4 = test: Cell surface CXCR4 expression by flow cytometry in transfected WM cells; type: cell-based
Protocol: as §1

pAKT and pERK = test: Immunohistochemical staining for pAKT and pERK in bone marrow of WM patients on ibrutinib; type: in vivo, human
[6] = CXCR4^S338X BCWM.1 and MWCL-1 cells
[7] = CXCR4^WT and CXCR4^S338X expressing BCWM.1 cells, pre-treatment 2 hours, AMD3100 30 uM or pertussis toxin 500 ng, SDF-1a 20 nM
[8] = SDF-1a cultured CXCR4^S338X BCWM.1 cells, AS-703026 0.25 uM, AZD-6244 0.5 uM, U0126 5.0 uM

## c1cc(CN2CCCNCCNCCCNCC2)ccc1CN1CCCNCCNCCCNCC1 [AMD3100]
CXCR4^S338X MWCL-1 cells; idelalisib, fludarabine and bortezomib treated cells, AMD3100 30 uM
  reversal of SDF-1a rescue by co-treatment with AMD3100: reversal of SDF1-a rescue
BCWM.1 and MWCL-1 cells [1]
  Annexin V staining: effect of adding AMD3100 to cells treated with ibrutinib and SDF-1a: restoration of apoptotic changes
BCWM.1 and MWCL-1 cells [1]; [6]
  Annexin V studies: effect of AMD3100 on SDF-1a rescue of idelalisib treated cells: reversal of rescue
BCWM.1 WM cells [2]; CXCR4^S338X, plerixafor 30 uM
  effect of concurrent CXCR4 antagonist on ibrutinib apoptosis in SDF-1a exposed cells: restored the pro-apoptotic effects of ibrutinib
CXCR4^S338X BCWM.1 cells; all agents (bendamustine, fludarabine, bortezomib, idelalisib), AMD3100 30 uM
  reversal of SDF-1a mediated rescue by co-treatment with AMD3100: reversal of rescue
BCWM.1 WM cells [3]
  block of CXCL12 rescue from ibrutinib growth effect: rescue could be blocked
BCWM.1 and MWCL-1 cells [4]
  reversal of SDF-1a rescue from ibrutinib induced apoptosis: could be reversed
WHIM patients
  myelokathexis related leukopenia: reversed myelokathexis related leukopenia
[5]; [7]
  SDF-1a triggered AKT and ERK activation: blocked both AKT and ERK activation

## O=C(NC[C@H](O)CO)c1ccncc1Nc1ccc(I)cc1F [AS-703026]
BCWM.1 WM cells [2]
  SDF-1a rescue of ibrutinib or idelalisib treated cells: attenuated SDF-1a rescue
[5]; [8]
  inhibitory activity by western blot analysis for pERK (T202/Y204): confirmed

## Cn1cnc2c(F)c(Nc3ccc(Br)cc3Cl)c(C(=O)NOCCO)cc21 [AZD-6244]
[5]; [8]
  inhibitory activity by western blot analysis for pERK (T202/Y204): confirmed

## NC1(c2ccc(-c3nc4ccn5c(=O)[nH]nc5c4cc3-c3ccccc3)cc2)CCC1 [MK-2206]
BCWM.1 WM cells [2]
  SDF-1a rescue of ibrutinib or idelalisib treated cells: attenuated SDF-1a rescue
[5]; SDF-1a cultured CXCR4^S338X BCWM.1 cells, 0.5 uM
  inhibitory activity by western blot analysis for pAKT (S473): confirmed

## N#CC(=C(/N)Sc1ccccc1N)/C(C#N)=C(\N)Sc1ccccc1N [U0126]
[5]
  inhibitory activity by western blot analysis for pERK (T202/Y204): confirmed

## Cn1c(CCCC(=O)O)nc2cc(N(CCCl)CCCl)ccc21 [bendamustine]
CXCR4^S338X MWCL-1 cells
  level of SDF-1a mediated rescue from PARP and caspase 3 cleavage: little to no SDF-1a rescue
CXCR4^S338X BCWM.1 cells
  level of SDF-1a mediated rescue from PARP and caspase 3 cleavage: moderate

## CC(C)C[C@H](NC(=O)[C@H](Cc1ccccc1)NC(=O)c1cnccn1)B(O)O [bortezomib]
CXCR4^S338X MWCL-1 cells
  level of SDF-1a mediated rescue from PARP and caspase 3 cleavage: lesser levels of rescue
CXCR4^S338X BCWM.1 cells
  level of SDF-1a mediated rescue from PARP and caspase 3 cleavage: moderate

## Nc1nc(F)nc2c1ncn2[C@@H]1O[C@H](CO)[C@@H](O)[C@@H]1O [fludarabine]
CXCR4^S338X MWCL-1 cells
  level of SDF-1a mediated rescue from PARP and caspase 3 cleavage: lesser levels of rescue
CXCR4^S338X BCWM.1 cells
  level of SDF-1a mediated rescue from PARP and caspase 3 cleavage: moderate

## C=CC(=O)N1CCC[C@@H](n2nc(-c3ccc(Oc4ccccc4)cc3)c3c(N)ncnc32)C1 [ibrutinib, 1-[(3R)-3-[4-amino-3-(4-phenoxyphenyl)pyrazolo[3,4-d]pyrimidin-1-yl]piperidin-1-yl]prop-2-en-1-one]
BCWM.1 and MWCL-1 cells [1]; ibrutinib plus SDF-1a
  Annexin V staining: SDF-1a effect on ibrutinib mediated apoptotic changes: rescue of ibrutinib mediated apoptotic changes by SDF-1a
CXCR4; CXCR4^WT or CXCR4^S338X expressing WM cells, 0.5, 1, 2, and 6 hours
  cell surface CXCR4 expression following ibrutinib treatment: little or no significant changes
CXCR4; vector only, CXCR4^WT and CXCR4^S338X transfected WM cells, addition of ibrutinib
  SDF-1a related changes in cell surface CXCR4 expression: did not affect
pAKT and pERK; CXCR4^WHIM patients, 6 months
  pAKT staining in bone marrow on continuous ibrutinib therapy: remained robust without any changes from baseline
pAKT and pERK; CXCR4^WT patients
  pAKT staining in bone marrow on continuous ibrutinib therapy: marginal pAKT staining
pAKT and pERK; all patients, regardless of CXCR4 mutation status
  pERK staining in bone marrow despite ibrutinib therapy: low levels of pERK staining
[5]
  BTK signaling: blocked BTK signaling
  SDF-1a triggered AKT and ERK activation: attenuated
  SDF-1a triggered AKT and ERK signaling: did not show attenuation

## CC[C@H](Nc1ncnc2[nH]cnc12)c1nc2cccc(F)c2c(=O)n1-c1ccccc1 [idelalisib]
CXCR4^S338X MWCL-1 cells
  level of SDF-1a mediated rescue from PARP and caspase 3 cleavage: moderate level of rescue
BCWM.1 and MWCL-1 cells [1]; [6]
  Annexin V studies: SDF-1a rescue: pronounced rescue by SDF-1a
CXCR4^S338X BCWM.1 cells
  level of SDF-1a mediated rescue from PARP and caspase 3 cleavage: strong

## AZD-5363
[5]; CXCR4^S338X BCWM.1 cells, 0.5 uM
  inhibitory effect on AKT (phospho-activity of downstream targets GKS3β and pS6): confirmed by inhibition of the phospho-activity

## pertussis toxin
[5]; [7]
  SDF-1a triggered AKT and ERK activation: blocked both AKT and ERK activation
